# Test system: panel of 484 cancer cell lines
# Assay: PRISM cancer cell line profiling, 5 days
# Format: cell-based
# Parameters: AUC: unit not given beside the values
# Method: Cancer cell line profiling was performed using the Broad’s PRISM platform. Cell treatment and data analysis were performed as described in Yu et al[42]. Raw Luminex signal was converted to AUC values for each cell line as described. The resulting AUC profile for each compound was modeled against DepMap using the limma package in R[71]. Because hotspot mutation analysis was performed against DepMap, TP53 annotations in Fig. 6c,d are directly from DepMap.
compound,measurement,setting,value
COc1ccc(C2=N[C@@H](c3ccc(Cl)cc3)[C@@H](c3ccc(Cl)cc3)N2C(=O)N2CCNC(=O)C2)c(OC(C)C)c1 [Nutlin-3A],AUC,NCIH2170_LUNG,1.154
same,AUC,NCIH2172_LUNG,1.147
same,AUC,NCIH2228_LUNG,1.087
same,AUC,NCIH2347_LUNG,0.9531
same,AUC,NCIH2444_LUNG,1.324
same,AUC,NCIH2452_PLEURA,1.028
same,AUC,NCIN87_STOMACH,1.465
same,AUC,NUGC3_STOMACH,1.1161
same,AUC,NUGC4_STOMACH,0.888
same,AUC,OAW42_OVARY,1.011
same,AUC,OC314_OVARY,0.964
same,AUC,OC316_OVARY,0.9756
same,AUC,OE19_OESOPHAGUS,1.199
same,AUC,OE21_OESOPHAGUS,1.087
same,AUC,OE33_OESOPHAGUS,0.9763
same,AUC,ONCODG1_OVARY,1.1325
same,AUC,ONS76_CENTRAL_NERVOUS_SYSTEM,0.8865
same,AUC,OSRC2_KIDNEY,0.8477
same,AUC,OUMS23_LARGE_INTESTINE,1.065
same,AUC,OV56_OVARY,1.192
same,AUC,OVCAR8_OVARY,1.207
same,AUC,OVISE_OVARY,0.8578
same,AUC,OVK18_OVARY,0.8595
same,AUC,OVSAHO_OVARY,1.156
same,AUC,OVTOKO_OVARY,0.9039
same,AUC,PANC1_PANCREAS,1.1
same,AUC,PANC0203_PANCREAS,1.166
same,AUC,PANC0327_PANCREAS,1.409
same,AUC,PANC0403_PANCREAS,1.138
same,AUC,PANC0813_PANCREAS,1.0676
same,AUC,PANC1005_PANCREAS,1.216
same,AUC,PATU8902_PANCREAS,1.154
same,AUC,PATU8988S_PANCREAS,1.234
same,AUC,PATU8988T_PANCREAS,1.162
same,AUC,PC3_PROSTATE,0.976
same,AUC,PC14_LUNG,1.1376
same,AUC,PECAPJ15_UPPER_AERODIGESTIVE_TRACT,1.095
same,AUC,PECAPJ41CLONED2_UPPER_AERODIGESTIVE_TRACT,1.019
same,AUC,PECAPJ49_UPPER_AERODIGESTIVE_TRACT,1.2004
same,AUC,PK1_PANCREAS,1.122
same,AUC,PK45H_PANCREAS,1.1189
same,AUC,PK59_PANCREAS,1.0633
same,AUC,PLCPRF5_LIVER,1.234
same,AUC,PSN1_PANCREAS,1.126
same,AUC,QGP1_PANCREAS,1.087
same,AUC,RCC10RGB_KIDNEY,0.8832
same,AUC,RCM1_LARGE_INTESTINE,1.202
same,AUC,RD_SOFT_TISSUE,1.042
same,AUC,RERFLCAD1_LUNG,1.147
same,AUC,RERFLCAD2_LUNG,1.183
same,AUC,RERFLCAI_LUNG,1.0697
same,AUC,RERFLCKJ_LUNG,1.11
same,AUC,RERFLCMS_LUNG,1.091
same,AUC,RH30_SOFT_TISSUE,1.041
same,AUC,RKN_SOFT_TISSUE,1.06
same,AUC,RKO_LARGE_INTESTINE,0.9236
same,AUC,RL952_ENDOMETRIUM,0.9689
same,AUC,RMGI_OVARY,0.9145
same,AUC,RMUGS_OVARY,1.151
same,AUC,RT4_URINARY_TRACT,1.199
same,AUC,RT112_URINARY_TRACT,0.9358
same,AUC,RVH421_SKIN,1.087
same,AUC,S117_SOFT_TISSUE,1.193
same,AUC,SBC5_LUNG,1.066
same,AUC,SCABER_URINARY_TRACT,1.156
same,AUC,SCC25_UPPER_AERODIGESTIVE_TRACT,1.213
same,AUC,SF126_CENTRAL_NERVOUS_SYSTEM,0.9298
same,AUC,SF295_CENTRAL_NERVOUS_SYSTEM,1.194
same,AUC,SF539_CENTRAL_NERVOUS_SYSTEM,1.114
same,AUC,SH4_SKIN,0.9981
same,AUC,SH10TC_STOMACH,1.171
same,AUC,SIMA_AUTONOMIC_GANGLIA,1.067
same,AUC,SJSA1_BONE,0.8737
same,AUC,SKES1_BONE,1.109
same,AUC,SKHEP1_LIVER,0.8252
same,AUC,SKLU1_LUNG,1.249
same,AUC,SKMEL2_SKIN,1.0683
same,AUC,SKMEL3_SKIN,1.137
same,AUC,SKMEL5_SKIN,0.8995
same,AUC,SKMEL24_SKIN,0.8575
same,AUC,SKMEL30_SKIN,1.211
same,AUC,SKMES1_LUNG,0.9911
same,AUC,SKNAS_AUTONOMIC_GANGLIA,1.242
same,AUC,SKNBE2_AUTONOMIC_GANGLIA,1.137
same,AUC,SKOV3_OVARY,1.101
same,AUC,SKUT1_SOFT_TISSUE,1.057
same,AUC,SNB75_CENTRAL_NERVOUS_SYSTEM,1.2
same,AUC,SNGM_ENDOMETRIUM,1.197
same,AUC,SNU46_UPPER_AERODIGESTIVE_TRACT,1.125
same,AUC,SNU61_LARGE_INTESTINE,1.275
same,AUC,SNU81_LARGE_INTESTINE,1.088
same,AUC,SNU213_PANCREAS,1.089
same,AUC,SNU245_BILIARY_TRACT,1.207
same,AUC,SNU308_BILIARY_TRACT,1.147
same,AUC,SNU398_LIVER,1.135
same,AUC,SNU407_LARGE_INTESTINE,0.9535
same,AUC,SNU410_PANCREAS,1.257
same,AUC,SNU423_LIVER,0.9946
same,AUC,SNU449_LIVER,1.202
same,AUC,SNU466_CENTRAL_NERVOUS_SYSTEM,1.108
same,AUC,SNU601_STOMACH,1.158
same,AUC,SNU668_STOMACH,0.9614
same,AUC,SNU685_ENDOMETRIUM,1.162
same,AUC,SNU719_STOMACH,1.114
same,AUC,SNU738_CENTRAL_NERVOUS_SYSTEM,1.181
same,AUC,SNU761_LIVER,1.163
same,AUC,SNU840_OVARY,0.883
same,AUC,SNU869_BILIARY_TRACT,1.149
same,AUC,SNU886_LIVER,1.1718
same,AUC,SNU1041_UPPER_AERODIGESTIVE_TRACT,1.098
same,AUC,SNU1066_UPPER_AERODIGESTIVE_TRACT,1.273
same,AUC,SNU1076_UPPER_AERODIGESTIVE_TRACT,1.222
same,AUC,SNU1077_ENDOMETRIUM,1.256
same,AUC,SNU1079_BILIARY_TRACT,1.079
same,AUC,SNU1105_CENTRAL_NERVOUS_SYSTEM,1.1033
same,AUC,SNU1196_BILIARY_TRACT,1.008
same,AUC,SNU1214_UPPER_AERODIGESTIVE_TRACT,1.185
same,AUC,SNUC2A_LARGE_INTESTINE,1.021
same,AUC,SNUC4_LARGE_INTESTINE,0.9159
same,AUC,SNUC5_LARGE_INTESTINE,1.066
same,AUC,SQ1_LUNG,1.1
same,AUC,SUIT2_PANCREAS,1.124
same,AUC,SW48_LARGE_INTESTINE,0.6832
same,AUC,SW480_LARGE_INTESTINE,1.185
same,AUC,SW579_THYROID,1.033
same,AUC,SW620_LARGE_INTESTINE,1.193
same,AUC,SW780_URINARY_TRACT,0.8319
same,AUC,SW837_LARGE_INTESTINE,1.121
same,AUC,SW900_LUNG,1.197
same,AUC,SW948_LARGE_INTESTINE,1.0613
same,AUC,SW1088_CENTRAL_NERVOUS_SYSTEM,1.216
same,AUC,SW1271_LUNG,0.9516
same,AUC,SW1353_BONE,1.036
same,AUC,SW1573_LUNG,0.9119
same,AUC,SW1710_URINARY_TRACT,1.113
same,AUC,SW1990_PANCREAS,1.0624
same,AUC,T3M10_LUNG,1.167
same,AUC,T24_URINARY_TRACT,1.096
same,AUC,T47D_BREAST,1.041
same,AUC,T98G_CENTRAL_NERVOUS_SYSTEM,0.9597
same,AUC,TCCPAN2_PANCREAS,1.066
same,AUC,TCCSUP_URINARY_TRACT,1.257
same,AUC,TE1_OESOPHAGUS,1.118
same,AUC,TE4_OESOPHAGUS,1.169
same,AUC,TE5_OESOPHAGUS,1.116
same,AUC,TE6_OESOPHAGUS,1.1488
same,AUC,TE8_OESOPHAGUS,1.279
same,AUC,TE9_OESOPHAGUS,0.9402
same,AUC,TE10_OESOPHAGUS,1.052
same,AUC,TE11_OESOPHAGUS,1.135
same,AUC,TEN_ENDOMETRIUM,1.229
same,AUC,TM31_CENTRAL_NERVOUS_SYSTEM,1.145
same,AUC,TM87_SOFT_TISSUE,0.8528
same,AUC,TOV21G_OVARY,0.8573
same,AUC,TOV112D_OVARY,1.15
same,mean diff. between TP53 functional WT and functional mutant populations (AUC),TP53 annotation by functional scores of Giacomelli et al.,0.165 ± 0.011
same,AUC,TT2609C02_THYROID,1.113
same,AUC,TT_OESOPHAGUS,1.115
same,AUC,TT_THYROID,0.8544
same,AUC,TUHR4TKB_KIDNEY,0.8234
same,AUC,U2OS_BONE,0.8753
same,AUC,U118MG_CENTRAL_NERVOUS_SYSTEM,1.124
same,AUC,U251MG_CENTRAL_NERVOUS_SYSTEM,1.1855
same,AUC,UACC62_SKIN,0.841
same,AUC,UACC257_SKIN,0.9099
same,AUC,UBLC1_URINARY_TRACT,1.2
same,AUC,UMUC1_URINARY_TRACT,1.103
same,AUC,UO31_KIDNEY,0.9228
same,AUC,VMCUB1_URINARY_TRACT,1.108
same,AUC,VMRCRCW_KIDNEY,1.098
same,AUC,VMRCRCZ_KIDNEY,1.139
same,AUC,WM88_SKIN,0.8161
same,AUC,WM793_SKIN,0.8713
same,AUC,WM983B_SKIN,0.9957
same,AUC,WM1799_SKIN,0.8817
same,AUC,WM2664_SKIN,0.8653
same,AUC,YAPC_PANCREAS,1.201
same,AUC,YD8_UPPER_AERODIGESTIVE_TRACT,1.226
same,AUC,YD10B_UPPER_AERODIGESTIVE_TRACT,1.17
same,AUC,YD15_SALIVARY_GLAND,1.2
same,AUC,YD38_UPPER_AERODIGESTIVE_TRACT,1.227
same,AUC,YH13_CENTRAL_NERVOUS_SYSTEM,1.109
same,AUC,YKG1_CENTRAL_NERVOUS_SYSTEM,1.146
same,AUC,ZR751_BREAST,1.121

# From article PMC7093416, “Selective USP7 inhibition elicits cancer cell killing through a p53-dependent mechanism” (Scientific Reports, 2020)
